From patent US20250304990A1, “HERBICIDE RESISTANCE” (SYNGENTA CROP PROTECTION AG, priority 2021, published 2025)
“And” between values parts separate entries of the source, which are not always exact repeats. Identical values can stand only once.

How the values were obtained:
Cf-496-13 = experiment: Dose response test, growth in 96-well plates; assay type: cell-based, Chlorella fusca; conditions: strain Cf-496-13; no growth, visual inspection
Protocol: (§1) Dose response tests with B5U were set-up in 96-well, flat bottomed plates. 200 μl medium was used in each well. 2 μl of 6 day old culture was added to each well, then 2 μl of DMSO or dilution of test compound were added to respective wells. 2-fold dilutions starting at 100 ppm were used per well. Plates were incubated at 25° C., 50 μmol/m^2/s, 16 hour photoperiod.
(§2) This was assessed by a visual inspection of growth in the 96-well plate. The inhibitor concentration at which no growth is observed is then defined as the LD.

Cf-496-51 = experiment: Dose response test, growth in 96-well plates; assay type: cell-based, Chlorella fusca; conditions: strain Cf-496-51 (F275I); no growth, visual inspection
Protocol: as §1, §2

Cf-496-35 = experiment: Dose response test, growth in 96-well plates; assay type: cell-based, Chlorella fusca; conditions: strain Cf-496-35; no growth, visual inspection
Protocol: as §1, §2

Cf-496-88 = experiment: Dose response test, growth in 96-well plates; assay type: cell-based, Chlorella fusca; conditions: strain Cf-496-88; no growth, visual inspection
Protocol: as §1, §2

Cf-496-65 = experiment: Dose response test, growth in 96-well plates; assay type: cell-based, Chlorella fusca; conditions: strain Cf-496-65; no growth, visual inspection
Protocol: as §1, §2

Cf-496-82 = experiment: Dose response test, growth in 96-well plates; assay type: cell-based, Chlorella fusca; conditions: strain Cf-496-82; no growth, visual inspection
Protocol: as §1, §2

Cf-496-97 = experiment: Dose response test, growth in 96-well plates; assay type: cell-based, Chlorella fusca; conditions: strain Cf-496-97; no growth, visual inspection
Protocol: as §1, §2

[1] = test system: D4429 (F266L mutant Oryza sativa HST) containing tobacco plant; experiment: Herbicide damage score after spraying, Example 4; assay type: in vivo; conditions: T1 B5u 500 gai/ha, averaged across transgenic population
Protocol: (§3) In order to determine if the newly discovered mutations detailed in Example 1 confer resistance to HST inhibiting compounds when expressed in plants, GM tobacco lines were produced and tested with HST inhibiting compounds. Transgenic tobacco plants expressing the Oryza sativa HST gene with and without mutations were tested.
(§4) Populations of transgenic tobacco comprising 20-30 transgenic events per plant transformation constructs were generated as described in Example 2. These lines were clonally propagated and 1 clone per event was sprayed with 500, 100 or 50 g ai/ha of compound 1+0.2% (w/v) Genapol X080 with a spray volume of 200 L/Ha. (“g ai/ha” refers to grams of active compound per hectare).
(§5) Herbicidal damage was visually assessed across the population and a herbicide damage score given at 7 and 14 days. A score of 0 indicates no visible damage or stunting whereas a score of 100 indicates a complete death of the plant. 20 transgenic events (i.e. individual transgenic plants) from each GM tobacco line were transplanted to soil 1 week prior to spraying with HST inhibiting compounds. WT tobacco was included as a control. The mutated genes are identified in Table 16 below.
(§6) The values in Tables 17 to 23 below refer to percentage of damage to the tested plants and show the damage scores for 20 populations of plants expressing either Oryza sativa WT HST gene (SEQ ID NO. 18), the Oryza sativa HST mutated gene according to SEQ ID NO. 47, the Oryza sativa HST mutated gene according to SEQ ID NO. 48, the Oryza sativa HST mutated gene according to SEQ ID NO. 49, the Oryza sativa HST mutated gene according to SEQ ID NO. 50, or the Oryza sativa HST mutated gene according to SEQ ID NO. 51. A control population of wild-type Samsun tobacco was also assessed for herbicide damage. […] However the mutated versions of the HST gene carrying the F262I, V263A, […], or F266L mutations (SEQ ID NOs: 47, 48, 50 or 51) clearly display increased tolerance.

[2] = test system: D4428 (F266I mutant Oryza sativa HST) containing tobacco plant; experiment: Herbicide damage score after spraying, Example 4; assay type: in vivo; conditions: T1 B5u 500 gai/ha, averaged across transgenic population
Protocol: as §3, §4, §5, §6

[3] = test system: D4425 (F262I mutant Oryza sativa HST) containing tobacco plant; experiment: Herbicide damage score after spraying, Example 4; assay type: in vivo; conditions: T1 B5u 500 gai/ha, averaged across transgenic population
Protocol: as §3, §4, §5, §6

[4] = test system: D4426 (V263A mutant Oryza sativa HST) containing tobacco plant; experiment: Herbicide damage score after spraying, Example 4; assay type: in vivo; conditions: T1 B5u 500 gai/ha; D4426 V263A; averaged across transgenic population
Protocol: as §3, §4, §5, §6

[5] = test system: D4427 (T264N mutant Oryza sativa HST) containing tobacco plant; experiment: Herbicide damage score after spraying, Example 4; assay type: in vivo; conditions: T1 B5u 500 gai/ha
Protocol: as §3, §4, §5, §6

[6] = test system: D4424 (WT Oryza sativa HST) containing tobacco plant; experiment: Herbicide damage score after spraying, Example 4; assay type: in vivo
Protocol: as §3, §4, §5, §6

WT tobacco = experiment: Herbicide damage score after spraying, Example 4; assay type: in vivo; conditions: T1 B5u 500 gai/ha; WT tobacco (Example 4); per plant
Protocol: as §3, §4, §5, §6

Cf-496-28 = experiment: Dose response test, growth in 96-well plates; assay type: cell-based, Chlorella fusca; conditions: strain Cf-496-28 (V276A); no growth, visual inspection
Protocol: as §1, §2
(§7) Starting dose was 100 ppm and decreasing with 2-fold dilutions with C. fusca wt, the five HST mutants and the 10 compounds to which the wt is sensitive. Plates were incubated at 25° C., 50 μmol/m2/s, 16 hour photoperiod.

Cf-496-94 = experiment: Dose response test, growth in 96-well plates; assay type: cell-based, Chlorella fusca; conditions: strain Cf-496-94 (F275L); no growth, visual inspection
Protocol: as §1, §2, §7

Cf-496-19 = experiment: Dose response test, growth in 96-well plates; assay type: cell-based, Chlorella fusca; conditions: strain Cf-496-19 (F275I); no growth, visual inspection
Protocol: as §1, §2, §7

Cf-496-15 = experiment: Dose response test, growth in 96-well plates; assay type: cell-based, Chlorella fusca; conditions: strain Cf-496-15 (T277N); no growth, visual inspection
Protocol: as §1, §2, §7

Cf WT = experiment: Dose response test, growth in 96-well plates; assay type: cell-based, Chlorella fusca; conditions: strain Cf WT; concentration at which no growth is observed, visual inspection
Protocol: as §1, §2, §7

Cf-496-8 = experiment: Dose response test, growth in 96-well plates; assay type: cell-based, Chlorella fusca; conditions: strain Cf-496-8 (M278L & F279I); no growth, visual inspection
Protocol: as §1, §2, §7

Cf-496-6 = experiment: Dose response test, growth in 96-well plates; assay type: cell-based, Chlorella fusca; conditions: strain Cf-496-6; no growth, visual inspection

Cc1nn(C)c(=O)c(-c2c(F)ccc(Cl)c2CCc2ccc(C(F)(F)F)cc2)c1OC(=O)C(C)C [B5u, [5-[3-chloro-6-fluoro-2-[2-[4-(trifluoromethyl)phenyl]ethyl]phenyl]-1,3-dimethyl-6-oxo-pyridazin-4-yl]2-methylpropanoate]
LD (lethal dose) (Cf-496-13): 6.25 ppm
LD (lethal dose) (Cf-496-51): >100 ppm
LD (lethal dose) (Cf-496-35): >100 ppm
LD (lethal dose) (Cf-496-88): >100 ppm
LD (lethal dose) (Cf-496-65): >100 ppm
LD (lethal dose) (Cf-496-82): >100 ppm
LD (lethal dose) (Cf-496-97): >100 ppm
Average percentage damage [1]: 40%
Average percentage damage [2]: 56%
Average percentage damage [3]: 38%
Average percentage damage [4]: 24%
percentage of damage ([5]; D4427 OsHST V003 T264N, per event): 50%
Average percentage damage ([5]; D4427 T264N, averaged across transgenic population): 67%
Average percentage damage ([6]; T1 B5u 500 gai/ha, D4424, mutation n.a., averaged across transgenic population): 31%
tolerance to herbicide ([6]; overexpression of Oryza sativa HST gene (SEQ ID NO.18) in tobacco): does not increase tolerance
percentage of damage (WT tobacco): 98% and 97% and 96% and 95%
LD (lethal dose) (Cf-496-28): >100 ppm
LD (lethal dose) (Cf-496-94): >100 ppm
LD (lethal dose) (Cf-496-19): >100 ppm
LD (lethal dose) (Cf-496-15): >100 ppm
LD (lethal dose) (Cf WT): 6.25 ppm
LD (lethal dose) (Cf-496-8): >100 ppm
LD (lethal dose) (Cf-496-6): >100 ppm
